Assay results reported in ChEMBL document CHEMBL6078714, “Discovery of N-Trifluoromethylated Noscapines as Novel and Potent Agents for the Treatment of Glioblastoma” (J Med Chem, 2025).
Active and inactive are the calls of the source. The calls are words filed in the database; no cut-off is given here.

Columns and labels:
U-118-MG [1] = assay: Antitumor activity against human U-118-MG cells xenografted in male BALB/c nude mouse assessed as tumor growth inhibition at 2.5 mg/kg, ip administered daily for 4 weeks relative to control; assay type: functional; conditions: 672 h, read-out: TGI
U-118-MG [2] = assay: Induction of apoptosis in human U-118-MG cells assessed as downregulation of Bcl-XL expression level at 1 to 40 uM incubated for 24 hrs by Western blot analysis; assay type: functional, cell-based; conditions: dose 1-40 µM
[3] = Ratio of drug concentration in Sprague-Dawley rat brain to plasma at 5 mg/kg, ip measured after 4 hrs; assay type: ADME, organism-based; conditions: read-out: BPR
[4] = Drug distribution in Sprague-Dawley rat brain at 5 mg/kg, ip measured after 4 hrs; assay type: ADME, organism-based; conditions: read-out: Ct
U-118-MG [5] = assay: Cell cycle arrest in human U-118-MG cells assessed as accumulation of cells at G1 phase at 10 uM incubated for 24 hrs by flow cytometric analysis (reference value: 56.2 %); assay type: functional
U-118-MG [6] = assay: Cell cycle arrest in human U-118-MG cells assessed as accumulation of cells at G2 phase at 30 uM incubated for 24 hrs by flow cytometric analysis (reference value: 30.6 %); assay type: functional
[7] = Toxicity in male BALB/c nude mouse xenografted with human U-118-MG cells assessed as body weight loss at 2.5 to 10 mg/kg, ip administered daily for 4 weeks; assay type: organism-based; conditions: in vivo, 672 h, dose 2.5-10 mg/kg
U-118-MG [8] = assay: Induction of apoptosis in human U-118-MG cells incubated for 24 hrs by Annexin V-FITC/PI staining based flow cytometric analysis; assay type: functional, cell-based; conditions: dose 3-40 µM
U-118-MG [9] = assay: Cell cycle arrest in human U-118-MG cells assessed as accumulation of cells at G1 phase at 20 uM incubated for 24 hrs by flow cytometric analysis (reference value: 56.2 %); assay type: functional
[10] = Toxicity in male BALB/c nude mouse xenografted with human U-118-MG cells assessed as effect on serum ALT level at 2.5 to 10 mg/kg, ip administered daily for 4 weeks; assay type: organism-based; conditions: in vivo, 672 h, dose 2.5-10 mg/kg
U-118-MG [11] = assay: Induction of apoptosis in human U-118-MG cells assessed as apoptotic rate at 20 uM incubated for 24 hrs by Annexin V-FITC/PI staining based flow cytometric analysis relative to control; assay type: functional
[12] = Toxicity in male BALB/c nude mouse xenografted with human U-118-MG cells assessed as effect on serum urea level at 2.5 to 10 mg/kg, ip administered daily for 4 weeks; assay type: organism-based; conditions: in vivo, 672 h, dose 2.5-10 mg/kg
[13] = Toxicity in male BALB/c nude mouse xenografted with human U-118-MG cells assessed as metastasis in kidney at 2.5 to 10 mg/kg, ip administered daily for 4 weeks by H and E staining based analysis; assay type: organism-based; conditions: in vivo, 672 h, dose 2.5-10 mg/kg
U-118-MG [14] = assay: Cell cycle arrest in human U-118-MG cells assessed as accumulation of cells at G2 phase at 3 uM incubated for 24 hrs by flow cytometric analysis (reference value: 30.6 %); assay type: functional
[15] = Toxicity in male BALB/c nude mouse xenografted with human U-118-MG cells assessed as metastasis in lung at 2.5 to 10 mg/kg, ip administered daily for 4 weeks by H and E staining based analysis; assay type: organism-based; conditions: in vivo, 672 h, dose 2.5-10 mg/kg
U-118-MG [16] = assay: Cell cycle arrest in human U-118-MG cells assessed as accumulation of cells at S phase at 10 uM incubated for 24 hrs by flow cytometric analysis (reference value: 10.7 %); assay type: functional
[17] = Cmax in Sprague-Dawley rat at 5 mg/kg, ip; assay type: ADME, organism-based; conditions: in vivo
[18] = Permeability of compound incubated for 12 hrs by PAMPA; assay type: ADME; conditions: read-out: permeability
U-118-MG [19] = assay: Induction of apoptosis in human U-118-MG cells assessed as downregulation of c-Myc expression level at 1 to 40 uM incubated for 24 hrs by Western blot analysis; assay type: functional, cell-based; conditions: dose 1-40 µM
U-118-MG [20] = assay: Cell cycle arrest in human U-118-MG cells assessed as accumulation of cells at G2 phase at 20 uM incubated for 24 hrs by flow cytometric analysis (reference value: 30.6 %); assay type: functional
U-118-MG [21] = assay: Cell cycle arrest in human U-118-MG cells assessed as accumulation of cells at S phase at 3 uM incubated for 24 hrs by flow cytometric analysis (reference value: 10.7 %); assay type: functional
U-118-MG [22] = assay: Antiproliferative activity against human U-118-MG cells assessed as inhibition of cell proliferation incubated for 72 hrs by CCK8 assay; assay type: functional, cell-based
[23] = Observed clearance in Sprague-Dawley rat at 5 mg/kg, ip; assay type: ADME, organism-based; conditions: in vivo
[24] = Observed volume of distribution in Sprague-Dawley rat at 5 mg/kg, ip; assay type: ADME, organism-based; conditions: in vivo
[25] = Ratio of drug concentration in Sprague-Dawley rat brain to plasma at 5 mg/kg, ip measured after 0.5 hrs; assay type: ADME, organism-based; conditions: read-out: BPR
[26] = Toxicity in male BALB/c nude mouse xenografted with human U-118-MG cells assessed as metastasis in liver at 2.5 to 10 mg/kg, ip administered daily for 4 weeks by H and E staining based analysis; assay type: organism-based; conditions: in vivo, 672 h, dose 2.5-10 mg/kg
U-118-MG [27] = assay: Cytotoxicity against human U-118-MG cells assessed as reduction in cell viability at 0.1 to 10 uM incubated for 24 hrs; assay type: functional, cell-based; conditions: dose 0.1-10 µM
[28] = Toxicity in male BALB/c nude mouse xenografted with human U-118-MG cells assessed as effect on serum creatinine level at 2.5 to 10 mg/kg, ip administered daily for 4 weeks; assay type: organism-based; conditions: in vivo, 672 h, dose 2.5-10 mg/kg
U-118-MG [29] = assay: Inhibition of cell migration in human U-118-MG cells at 0.1 to 10 uM incubated for 24 hrs by microscopy based wound healing assay; assay type: functional; conditions: dose 0.1-10 µM
[30] = Tmax in Sprague-Dawley rat at 5 mg/kg, ip; assay type: ADME, organism-based; conditions: in vivo
[31] = AUC (0 to 24 hrs) in Sprague-Dawley rat at 5 mg/kg, ip; assay type: ADME, organism-based; conditions: in vivo
U-118-MG [32] = assay: Antiproliferative activity against human U-118- MG cells assessed as inhibition of cell proliferation at 10 uM by crystal violet staining based analysis; assay type: functional
U-118-MG [33] = assay: Inhibition of cell migration in human U-118-MG cells assessed as decrease in number of migrating cells at 0.1 uM incubated for 24 hrs by transwell assay; assay type: functional, cell-based
[34] = Half-life in Sprague-Dawley rat at 5 mg/kg, ip; assay type: ADME, organism-based; conditions: in vivo
[35] = Bioavailability in Sprague-Dawley rat at 5 mg/kg, ip; assay type: ADME, organism-based; conditions: in vivo
U-118-MG [36] = assay: Inhibition of cell migration in human U-118-MG cells assessed as decrease in number of migrating cells at 1 uM incubated for 24 hrs by transwell assay; assay type: functional, cell-based
[37] = Toxicity in male BALB/c nude mouse xenografted with human U-118-MG cells assessed as metastasis in heart at 2.5 to 10 mg/kg, ip administered daily for 4 weeks by H and E staining based analysis; assay type: organism-based; conditions: in vivo, 672 h, dose 2.5-10 mg/kg
[38] = Drug distribution in Sprague-Dawley rat plasma at 5 mg/kg, ip measured after 0.5 hrs; assay type: ADME, organism-based
U-118-MG [39] = assay: Antiproliferative activity against human U-118- MG cells assessed as inhibition of cell proliferation by crystal violet staining based analysis; assay type: functional; conditions: dose 10-40 µM
[40] = Drug distribution in Sprague-Dawley rat brain at 5 mg/kg, ip measured after 0.5 hrs; assay type: ADME, organism-based; conditions: read-out: Ct
[41] = Toxicity in male BALB/c nude mouse xenografted with human U-118-MG cells assessed as metastasis in spleen at 2.5 to 10 mg/kg, ip administered daily for 4 weeks by H and E staining based analysis; assay type: organism-based; conditions: in vivo, 672 h, dose 2.5-10 mg/kg

- Kp at 4 h [3]: 0.517
- concentration at 4 h [4]: 34.5 ng/g
- Cmax [17]: 152 ng/mL
- Papp at 12 h [18]: 12.1 ×10⁻⁶ cm/s
- CL [23]: 135 mL/min/kg
- Vd [24]: 65.2 L/kg
- Kp at 0.5 h [25]: 0.349
- Tmax [30]: 0.5 h
- AUC [31]: 661 ng·h/mL
- half-life [34]: 5.64 h
- bioavailability [35]: 61.3%
- concentration at 0.5 h [38]: 99.6 ng/mL
- concentration at 0.5 h [40]: 35.4 ng/g
Compound: COc1ccc2c(c1OC)C(=O)O[C@@H]2[C@H]1c2c(c(Br)c3c(c2OC)OCO3)CCN1C(F)(F)F
- inhibition in vivo at 2.5 mg/kg (U-118-MG [1]): 34.4%
- Activity (U-118-MG [2]): Active
- Activity (U-118-MG [5]): 56.6%
- Activity (U-118-MG [6]): 52.2%
- Activity [7]: Non-toxic
- Activity (U-118-MG [8]): Dose-dependent-effect
- Activity (U-118-MG [9]): 48.3%
- Activity [10]: Non-toxic
- Activity (U-118-MG [11]): 23.7%
- Activity [12]: Non-toxic
- Activity [13]: Non-toxic
- Activity (U-118-MG [14]): 31.7%
- Activity [15]: Non-toxic
- Activity (U-118-MG [16]): 9.24%
- Activity (U-118-MG [19]): Active
- Activity (U-118-MG [20]): 40%
- Activity (U-118-MG [21]): 10.4%
- IC50 (U-118-MG [22]): 1.55 µM
- Activity [26]: Non-toxic
- Activity (U-118-MG [27]): inactive
- Activity [28]: Non-toxic
- inhibition (U-118-MG [29]): Active
- Activity (U-118-MG [32]): Active
- inhibition (U-118-MG [33]): Active
- inhibition (U-118-MG [36]): Active; Superior Inhibitory Activity Compared To Noscapine And Tmz
- Activity [37]: Non-toxic
- Activity (U-118-MG [39]): Dose-dependent-effect
- Activity [41]: Non-toxic
